This is an account of results in patent US20130029983A1, “AMINOTHIENOPYRIDAZINE INHIBITORS OF TAU ASSEMBLY” (priority 2009, published 2013).

Bounds are passed on as bounds.

Data set [1] concerns the target T1, K18PL tau (Homo sapiens, UniProt P10636, P618L).
T1 construct: (K18PL; amino acids 244-369); made in house
Description: Heparin-induced K18PL tau fibrillization assay monitored by ThT fluorescence. It is filed as biochemical. As to conditions: Table 5; for IC50: read-out: K18PL (ThT) IC50 value; for Emax: read-out: K18PL (ThT) maximal percent inhibition achieved in the assay. An outline of the steps: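 K18PL (30 μM stock, with 0.24 μM Alexa Red-labeled K18PL) plus 40 μM heparin and compound, fibrillized 6 h at 37 °C. Fibrils read by ThT (12.5 μM final, in 100 mM glycine pH 8.5, 1 h RT), ex 450/em 510 nm. Percent inhibition scaled between DMSO wells and non-fibrillizing K18 KD control wells.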

Data set [2] in a line: Turbidimetric solubility in fibrillization buffer. It is filed as physicochemical. As to conditions: 100 mM NaOAc pH 7.0 fibrillization buffer, 1% DMSO. How it is done:
Compounds were serially diluted in DMSO to achieve a 2.5 fold dilution series from 20 mM down 8 points to […] on a 384-well master plate (Costar 3672). Aliquots (2 μL) were transferred to a clear 96-well assay plate (Fisher 12-565-501) containing 198 μL fibrillization buffer (100 mM NaOAc pH 7.0) for a 100-fold dilution (200 μM down to 0.3 μM). The plate was incubated with agitation for 2.5 h, and the absorbance at 550, 600, 650 and 700 nm was measured on a Spectramax M5 spectrophotometer. DMSO (1%) in fibrillization buffer served as a control that was subtracted from each data point. The absorbances were averaged and the concentration at which the average absorbance rose above 0.03 AU was an indication of insoluble compound, with solubility limits reported as the previous concentration in the dilution series.

Data set [3] addresses T1, K18PL tau. Description: K18PL tau centrifugation (sedimentation) assay, SDS-PAGE densitometry. It is filed as biochemical. As to conditions: SDS-PAGE of soluble and insoluble fractions after centrifugation; for Emax: read-out: K18PL Sed. Assay, maximal percent inhibition of K18PL fibrillization. An outline of the steps: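 Heparin-induced fibrillization of K18PL tau in sodium acetate buffer with test compound; mixtures were centrifuged and soluble versus insoluble K18PL quantified by SDS-PAGE densitometry. A repeat run centrifuged DMSO- and compound-treated mixtures for 30 min at time zero to remove pelletable material before incubation.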

Data set [4] can be described thus: Full PK analysis and oral administration, brain and plasma levels. It is filed as in vivo, mice. As to conditions: oral 5 mg/Kg, FIGS. 6B and 6C; 5 mg/kg. On the procedure:
FIG. 6. (A) Brain and plasma level of F4 (CNDR-51362) after i.v. administration at 2 mg/Kg; (B) Brain and plasma level of F4 (CNDR-51362) after oral administration at 5 mg/Kg; (C) Brain and plasma level of F3 (CNDR-51349) after oral administration at 5 mg/Kg
(§1) Test compounds underwent preliminary evaluations of brain penetration, in which 5 mg/Kg of each compound was administered intraperitoneally (i.p.) to a group of three normal mice; drug levels in brain and plasma were determined at a single time-point (1 h) by LC-MS/MS using pre-validated calibration curves. […] However, both esters appeared to have relatively short half-lives in plasma, as indicated by the limited amount of parent drug detected after 1 h from administration of the compounds. […] CNDR-51362 was selected for full PK analysis in which brain and plasma drug levels were determined at six time points (i.e., 30 min, 1 h, 2 h, 4 h, 8 h, and 16 h). The results from this experiment, illustrated in FIG. 6A, confirmed that the total B/P exposure ratio over 16 h is 1.6. […] Finally, in order to investigate the potential for ATPZ congeners to be orally administered, we evaluated brain and plasma level of CNDR-51362 and CNDR-51349 after oral administration of 5 mg/Kg.
(§2) Brain tissue was homogenized in 10 mM ammonium acetate, pH 5.7 (1:2; w/v) using a handheld sonic homogenizer. Plasma was obtained from blood that was collected into a 1.5 mL tube containing 0.5M EDTA solution and subjected to centrifugation for 10 min. at 4500 g at 4° C. Aliquots (50 μL) of brain homogenate or plasma were mixed with 0.2 mL of acetonitrile, centrifuged at 15,000 g, and the resulting supernatants were used for subsequent LC-MS/MS analysis. The LC-MS/MS system was comprised of an Aquity HPLC and a TQ MS that was controlled using MassLynx software (Waters Corporation, Milford, Mass., USA). Compounds were detected using multiple reaction monitoring (MRM) of their specific collision-induced ion transitions. Samples (5 μL) were separated on an Aquity BEH C18 column (1.7 μm, 2.1×50 mm) at 35° C. Operation was in positive electrospray ionization mode, with mobile phase A of 0.1% (v/v) formic acid, and B of either acetonitrile or methanol with 0.1% (v/v) formic acid at a flow rate of 0.6 mL/min using a gradient from 5% to 95% B over two min., followed by wash and re-equilibration steps. The MS was operated with a desolvation temperature of 450° C. and a source temperature of 150° C. Desolvation and source nitrogen gas flows were 900 L/hr and 50 L/hr, respectively. Source and MS/MS voltages were optimized for each compound using the MassLynx auto tune utility. Standard curves were generated for each compound from brain homogenate and plasma samples that had compound added at 4, 40, 400 and 4000 ng/mL and extracted as above. Peak areas were plotted against concentration and a 1/x weighted linear regression curve was used to quantify the tissue-derived samples using the average peak area from triplicate injections.

The next data set addresses T2, full-length tau (tau40) (Homo sapiens, UniProt P10636).
T2 construct: Full length tau (Tau40; amino acids 1-441); made in house
Description: Tau40 fibrillization sedimentation assay. It is filed as biochemical. As to conditions: SDS-PAGE of soluble and insoluble fractions after centrifugation; for Emax: read-out: Tau40 Sed. Assay, maximal percent inhibition of tau40 fibrillization. How it is done: The determination of compound-induced effects on the amount of tau that remains soluble upon centrifugation, and EM visualization of tau species following incubation with test compounds, were as previously described (Crowe, A., Ballatore, C., Hyde, E., Trojanowski, J. Q., and Lee, V. M. Y. (2007) Biochemical and Biophysical Research Communications 358, 1-6). […]

A short description of data set [5]: Brain and plasma drug levels 1 h after i.p. administration (LC-MS/MS). It is filed as in vivo. As to conditions: mice; for B/P, ratio between brain/plasma drug level: 1 h after i.p. 5 mg/Kg. How it is done:
as §1, §2

Data set [6] deals with T3, K18 tau-mediated tubulin polymerization (Homo sapiens, UniProt P10636).
T3 construct: (K18PL; amino acids 244-369)
T3 sequence (P10636 561-686): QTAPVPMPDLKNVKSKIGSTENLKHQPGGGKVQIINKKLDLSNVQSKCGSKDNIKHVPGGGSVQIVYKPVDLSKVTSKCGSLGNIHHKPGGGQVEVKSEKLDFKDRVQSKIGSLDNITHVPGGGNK
Put plainly: Tau-mediated MT assembly assay (K18 tau, tubulin). It is filed as biochemical, bovine (tubulin). As to conditions: 50 μM compound, FIG. 1A.
Description: The effect of compounds on tau-mediated MT assembly was essentially as described (Hong, M., Zhukareva, V., Vogelsberg-Ragaglia, V., Wszolek, Z., Reed, L., Miller, B. I., Geschwind, D. H., Bird, T. D., McKeel, D., Goate, A., Morris, J. C., Wilhelmsen, K. C., Schellenberg, G. D., Trojanowski, J. Q., and Lee, V. M. Y. (1998) Science 282, 1914-1917), adapted to a 384-well plate. […] Lyophilized bovine brain tubulin (Cytoskeleton Inc.) was reconstituted in RAB (100 mM MES, pH 6.9; 1 mM EDTA; 0.5 mM MgSO4) at a concentration of 10 mg/ml. Compounds (50 μM) were added to K18 tau (40 μM) in RAB and pre-incubated at room temperature for 60 minutes. To initiate the MT assembly reaction, 8.25 μl per well of 10 mg/ml tubulin was dispensed on a UV-clear 384-well plate (Corning #3675), followed by 1.0 μl of 100 mM GTP in RAB and 41.25 μl of the compound:tau mixture. […] The plate was incubated in a Spectramax M5 plate reader at 37° C. and the absorbance at 340 nm was read every minute for 45 minutes.

T2 sequence (P10636 1-441 isoform P10636-8): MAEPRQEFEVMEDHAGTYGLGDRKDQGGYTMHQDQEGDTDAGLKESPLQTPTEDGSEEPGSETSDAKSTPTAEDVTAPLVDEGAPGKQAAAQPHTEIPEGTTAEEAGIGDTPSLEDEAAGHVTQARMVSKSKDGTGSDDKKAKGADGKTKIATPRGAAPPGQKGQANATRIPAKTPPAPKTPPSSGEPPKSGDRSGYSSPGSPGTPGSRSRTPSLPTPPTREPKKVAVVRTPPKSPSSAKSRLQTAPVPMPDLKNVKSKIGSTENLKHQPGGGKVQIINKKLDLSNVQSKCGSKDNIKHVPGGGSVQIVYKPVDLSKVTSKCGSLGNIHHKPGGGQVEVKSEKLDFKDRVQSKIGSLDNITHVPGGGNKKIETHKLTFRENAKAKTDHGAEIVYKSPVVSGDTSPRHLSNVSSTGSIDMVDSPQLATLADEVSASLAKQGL
T1 sequence (P10636 561-686 P618L): as the sequence (P10636 561-686) above, with P58L counted along it

As usually defined, the IC50 is the concentration needed to halve the response being measured. As for `CC(C)NC(=O)c1nn(-c2ccc(Cl)cc2)c(=O)c2c(N)scc12` [CNDR-51349, 5-Amino-3-(4-chlorophenyl)-N-isopropyl-4-oxo-3,4-dihydrothieno[3,4-d]pyridazine-1-carboxamide], at K18PL tau [1], the half-inhibitory concentration (IC50) was determined as 0.7 µM and the Emax came out at 88%. The “Water Solubility” value in data set [2] came out at 32 µM. Further, at K18PL tau [3], the Emax was found to be 65%. The “Brain concentration after oral administration” value in data set [4] was “significant brain concentrations”. In addition, at full-length tau (tau40), the “Tau40 Sed. Assay, maximal percent inhibition of tau40 fibrillization” value stood at 45% and the Emax fell in the range of 50 to 60%. Besides, the “B/P, ratio between brain/plasma drug level” value in data set [5] worked out at 2.2. In data set [5] (1 h after i.p. 5 mg/kg, listed as CNDK-51349, 5 mg/kg), this molecule showed a Brain level of 1100 ng/g.
Take `CCNC(=O)c1nn(-c2ccc(Cl)cc2)c(=O)c2c(N)scc12` [CNDR-51365, 5-Amino-3-(4-chlorophenyl)-N-ethyl-4-oxo-3,4-dihydrothieno[3,4-d]pyridazine-1-carboxamide]: at K18PL tau [1], the IC50 came out at 5.6 µM and the Emax is 91%. The “Water Solubility” value in data set [2] stood at 32 µM. Also, the Emax on K18PL tau [3] worked out at 94%. In addition, on full-length tau (tau40), the “Tau40 Sed. Assay, maximal percent inhibition of tau40 fibrillization” value is 57% and the Emax lay in the range of 50 to 60%. Besides, in data set [5], the “B/P, ratio between brain/plasma drug level” value turned out to be 1.8.
In the case of `CNC(=O)c1nn(-c2ccc(Cl)cc2)c(=O)c2c(N)scc12` [CNDR-51367, 5-Amino-3-(4-chlorophenyl)-N-methyl-4-oxo-3,4-dihydrothieno[3,4-d]pyridazine-1-carboxamide], on K18PL tau [1], the IC50 is 4.3 µM and the Emax worked out at 91%. The “Water Solubility” value in data set [2] was 13 µM. Also, the Emax at K18PL tau [3] amounted to 68%. On full-length tau (tau40), the “Tau40 Sed. Assay, maximal percent inhibition of tau40 fibrillization” value is on record as 51% and the Emax is 50 to 60%. In addition, the “B/P, ratio between brain/plasma drug level” value in data set [5] is reported as 0.49.
A word on the melting point: it is the temperature, or range, at which the solid turns liquid. The molecule `Nc1scc2c(C(=O)O)nn(-c3ccc(Cl)cc3)c(=O)c12` [CNDR-51348, 5-Amino-3-(4-chlorophenyl)-4-oxo-3,4-dihydrothieno[3,4-d]pyridazine-1-carboxylic acid] had a melting point greater than 300 °C. At K18PL tau [1], the IC50 was 1.6 µM and the Emax was 87%. Moreover, the Emax at K18PL tau [3] came out at 79%. For the same molecule, on full-length tau (tau40), the “Tau40 Sed. Assay, maximal percent inhibition of tau40 fibrillization” value worked out at 62% and the Emax is 50 to 60%. For the same molecule, the Brain penetration entry in data set [5] (i.p. 5 mg/Kg, 1 h) was “lack of brain penetration”. For the same molecule, in data set [5], the “B/P, ratio between brain/plasma drug level” value was 0.023.
As to `CCN(C)C(=O)c1nn(-c2ccc(Cl)cc2)c(=O)c2c(N)scc12` [CNDR-51366, 5-Amino-3-(4-chlorophenyl)-N-ethyl-N-methyl-4-oxo-3,4-dihydrothieno[3,4-d]pyridazine-1-carboxamide], on K18PL tau [1], the IC50 was 6.8 µM and the Emax came out at 91%. Also, in data set [2], the “Water Solubility” value came out at 80 µM. Further, on K18PL tau [3], the Emax was 62%. On full-length tau (tau40), the “Tau40 Sed. Assay, maximal percent inhibition of tau40 fibrillization” value amounted to 58% and the Emax was 50 to 60%. For the same molecule, the “B/P, ratio between brain/plasma drug level” value in data set [5] is 0.89.
As to `CC(C)NC(=O)c1nn(-c2ccc(Br)cc2)c(=O)c2c(N)scc12` [CNDR-51390, 5-Amino-3-(4-bromophenyl)-N-isopropyl-4-oxo-3,4-dihydrothieno[3,4-d]pyridazine-1-carboxamide], on K18PL tau [1], the IC50 came to 2.2 µM and the Emax came to 89%. For the same molecule, the “Water Solubility” value in data set [2] was determined as 13 µM. Moreover, the Emax on K18PL tau [3] is 58%. For the same molecule, on full-length tau (tau40), the “Tau40 Sed. Assay, maximal percent inhibition of tau40 fibrillization” value is 55% and the Emax fell in the range of 50 to 60%. Besides, in data set [5], the “B/P, ratio between brain/plasma drug level” value is recorded as 2.0.
Consider `CN(C)c1ccc2nc3ccc(=[N+](C)C)cc-3sc2c1` [methylene blue], for which, in data set [6], the “Effect on tau-mediated tubulin polymerization (MT formation)” value is “significant diminution”.
On to `CN(C)C(=O)c1nn(-c2ccc(Cl)cc2)c(=O)c2c(N)scc12` [CNDR-51361, 5-Amino-3-(4-chlorophenyl)-N,N-dimethyl-4-oxo-3,4-dihydrothieno[3,4-d]pyridazine-1-carboxamide], for which, on K18PL tau [1], the 50% inhibitory concentration (IC50) was found to be 5.3 µM and the Emax worked out at 88%. Besides, the “Water Solubility” value in data set [2] was 32 µM. The “K18PL Sed. Assay, maximal percent inhibition of K18PL fibrillization” value on K18PL tau [3] was 69%. On full-length tau (tau40), the “Tau40 Sed. Assay, maximal percent inhibition of tau40 fibrillization” value came to 69% and the Emax fell in the range of 50 to 60%. For the same molecule, the “B/P, ratio between brain/plasma drug level” value in data set [5] was found to be 0.44.
For the molecule `CC(C)OC(=O)c1nn(-c2ccc(Cl)cc2)c(=O)c2c(N)scc12` [CNDR-51371, Isopropyl 5-amino-3-(4-chlorophenyl)-4-oxo-3,4-dihydrothieno[3,4-d]pyridazine-1-carboxylate], the melting point lay in the range of 118 to 120 °C. In addition, on K18PL tau [1], the IC50 was 1.5 µM and the Emax is 81%. Further, the “Water Solubility” value in data set [2] stood at 32 µM. Moreover, on K18PL tau [3], the Emax was determined as 44%. On full-length tau (tau40), the “Tau40 Sed. Assay, maximal percent inhibition of tau40 fibrillization” value turned out to be 61% and the Emax was in the range of 50 to 60%.
